Data on 38 compounds can be found in patent US20240294519A1, “PYRROLO[2,3-b]PYRIDINE PGDH INHIBITORS AND METHODS OF MAKING AND USING” (EPIRIUM BIO INC., priority 2021, published 2024).

By IC50 is commonly meant the concentration that gives 50% inhibition.

In this assay the target is T1, 15-PGDH/HPGD (Homo sapiens, UniProt P15428).
T1 construct: purchased R&D System 5660-DH
T1 sequence (P15428 1-266): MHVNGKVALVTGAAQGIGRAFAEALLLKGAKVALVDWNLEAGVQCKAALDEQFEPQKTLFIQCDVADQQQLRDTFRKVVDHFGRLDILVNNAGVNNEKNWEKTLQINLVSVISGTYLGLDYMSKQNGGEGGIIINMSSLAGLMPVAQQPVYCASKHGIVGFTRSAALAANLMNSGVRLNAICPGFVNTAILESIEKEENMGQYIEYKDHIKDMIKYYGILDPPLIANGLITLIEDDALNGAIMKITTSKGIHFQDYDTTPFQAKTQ
Description: hPGDH inhibitor screening biochemical assay. To be noted: 10 nM enzyme, 15 μM PGE2, 0.25 mM NAD, fluorescence ex/em 340/485 nm. As to the method:
A hydroxyprostaglandin dehydrogenase inhibition screening biochemical assay can be performed to assess the synthesized inhibitors provided herein. Provided herein is an exemplary biochemical assay for hPGDH inhibitor screening.
The in vitro biochemical assay can be performed in white, 384 plates in total 20 μl reaction volume consisting of 10 nM of 15-PGDH/HPGD (R&D System #5660-DH), 15 μM Prostaglandin E2 (Sigma, C8 t #P5640-10 MG) and 0.25 mM β-Nicotinamide adenine dinucleotide sodium salt (Sigma, C8 t #N0632-5G) made in reaction buffer (50 mM Tris-HCl, pH 7.5, 0.01% Tween 20) at 10-point dose response curve for test/tool compounds. Briefly, 5 μl (4×) of compounds solution and 5 μl (final concentration, 10 nM) of enzyme solution is added to white 384 well plates and incubated for 10 mins at 37° C. 5 μl (4×) of […] and 5 μl (4×) of β-Nicotinamide adenine dinucleotide sodium salt is added to the wells and incubated for 10 mins at room temperature. Fluorescence is recorded at ex/em=340 nm/485 nm. The percentage (%) inhibition of enzyme activity was determined relative to positive control (1% DMSO) and IC50 was calculated using GraphPad prism software (four parameter-variable slope equation).

As for `CC1CCCN(C(=O)c2cnc3c(ccn3-c3ccc(C#N)cc3)c2)C1` (stereo in doubt) [Compound B-10, (R)-4-(5-(3-methylpiperidine-1-carbonyl)-1H-pyrrolo[2,3-b1 pyridin-1-yl)benzonitrile], the IC50 was below 100 nM. With `CCC1CCCN(C(=O)c2cnc3c(ccn3-c3cncc(NC(=O)OC)c3)c2)C1` (stereo in doubt) [Compound B-69, methyl(R)-(5-(5-(3-ethylpiperidine-1-carbonyl)-1H-pyrrolo[2,3-b]pyridin-1-yl)pyridin-3-yl)carbamate] the figure was below 100 nM; with `O=C(c1cnc2c(ccn2-c2cncc(-c3n[nH]c(C4CC4)n3)c2)c1)N1CCC(F)(F)CC1` [Compound B-1, (1-(5-(5-cyclopropyl-1H-1,2,4-triazol-3-yl)pyridin-3-yl)-1H-pyrrolo [2,3-b]pyridin-5-yl)(4,4-difluoropiperidin-1-yl)methanone], below 100 nM. Consider `O=C(c1cnc2c(ccn2-c2ccc(N3CCNC3=O)nc2)c1)N1CCC(F)(F)CC1` [Compound B-2], for which the IC50 is below 100 nM. Regarding `C[C@@H]1CCCN(C(=O)c2cnc3c(ccn3-c3ccc(C(=O)O)cc3)c2)C1` [Compound B-3], the IC50 was below 100 nM. Take `C[C@H]1CCCN(C(=O)c2cnc3c(ccn3-c3ccc(C(=O)O)cc3)c2)C1` [Compound B-4]: the IC50 was below 100 nM. Compound `C[C@@H]1CCN(C(=O)c2cnc3c(ccn3-c3ccc(C(=O)O)cc3)c2)C1` [Compound B-5] registered an IC50 below 100 nM. With `O=C(O)c1ccc(-n2ccc3cc(C(=O)N4CC[C@@H](F)C4)cnc32)cc1` [Compound B-6], the IC50 was below 100 nM.

`C[C@H]1CCN(C(=O)c2cnc3c(ccn3-c3ccc(C(=O)O)cc3)c2)C1` [Compound B-7] showed an IC50 below 100 nM. Compound `O=C(O)c1ccc(-n2ccc3cc(C(=O)N4CC[C@H](F)C4)cnc32)cc1` [Compound B-8] had an IC50 below 100 nM. The figure for `C[C@@H]1CCCN(C(=O)c2cnc3c(ccn3-c3ccc(C#N)cc3)c2)C1` [Compound B-9, (R)-4-(5-(3-methylpiperidine-1-carbonyl)-1H-pyrrolo12,3-b1 pyridin-1-yl)benzonitrile] is below 100 nM; for `Nc1nc(-c2cncc(-n3ccc4cc(C(=O)N5CCC(F)(F)CC5)cnc43)c2)no1` [Compound B-11, (1-(5-(5-amino-1,2,4-oxadiazol-3-yl)pyridin-3-yl)-1H-pyrrolo [2,3-b]pyridin-5-yl)(4,4-difluoropiperidin-1-yl)methanone] it is below 100 nM. Take `Nc1nc2ccc(-n3ccc4cc(C(=O)N5CCC(F)(F)CC5)cnc43)cn2n1` [Compound B-12]: the IC50 is below 100 nM. The compound `O=C(c1cnc2c(ccn2-c2ccc(N3CCN(c4ccc(-n5ccc6cc(C(=O)N7CCC(F)(F)CC7)cnc65)cn4)C3=O)nc2)c1)N1CCC(F)(F)CC1` [Compound B-13] had an IC50 of 100 to 1000 nM. For `Cc1cnc(-c2cncc(-n3ccc4cc(C(=O)N5CCC(F)(F)CC5)cnc43)c2)[nH]1` [Compound B-14], the IC50 is below 100 nM.

For the compound `Cc1nc(-c2cncc(-n3ccc4cc(C(=O)N5CCC(F)(F)CC5)cnc43)c2)c[nH]1` [Compound B-15], the IC50 was below 100 nM.

Compound `Cc1nc(-c2ccc(-n3ccc4cc(C(=O)N5CCC(F)(F)CC5)cnc43)cn2)c[nH]1` [Compound B-16, (4,4-difluoropiperidin-1-yl)(1-(6-(2-methyl-1H-imidazol-4-yl)pyridin-3-yl)-1H-pyrrolo[2,3-b]pyridin-5-yl)methanone] yielded an IC50 below 100 nM. As to `Cc1cnc(-c2ccc(-n3ccc4cc(C(=O)N5CCC(F)(F)CC5)cnc43)cn2)[nH]1` [Compound B-17], the IC50 was below 100 nM. In the case of `Cc1nn[nH]c1-c1cncc(-n2ccc3cc(C(=O)N4CCC(F)(F)CC4)cnc32)c1` [Compound B-18, (4,4-difluoropiperidin-1-yl) (1-(5-(4-methyl-1H-1,2,3-triazol-5-yl)pyridin-3-yl)-1H-pyrrolo[2,3-b]pyridin-5-yl)methanone], the IC50 was below 100 nM. `Cc1[nH]nnc1-c1ccc(-n2ccc3cc(C(=O)N4CCC(F)(F)CC4)cnc32)cn1` [Compound B-19, (4,4-difluoropiperidin-1-yl)(1-(6-(5-methyl-1H-1,2,3-triazol-4-yl)pyridin-3-yl)-1H-pyrrolo[2,3-b]pyridin-5-yl)methanone] displayed an IC50 below 100 nM. With `CC(C)(C)Nc1nc(-c2cncc(-n3ccc4cc(C(=O)N5CCC(F)(F)CC5)cnc43)c2)no1` [Compound B-20, (1-(5-(5-(tert-butylamino)-1,2,4-oxadiazol-3-yl)pyridin-3-yl)-1H-pyrrolo[2,3-b]pyridin-5-yl)(4,4-difluoropiperidin-1-yl)methanone] the figure was below 100 nM; with `Cc1nnc(-c2ccc(-n3ccc4cc(C(=O)N5CCC(F)(F)CC5)cnc43)cn2)[nH]1` [Compound B-21, (4,4-difluoropiperidin-1-yl)(1-(6-(5-methyl-4H-1,2,4-triazol-3-yl)pyridin-3-yl)-1H-pyrrolo[2,3-b]pyridin-5-yl)methanone], below 100 nM. In turn, `Cc1nnc(-c2cncc(-n3ccc4cc(C(=O)N5CCC(F)(F)CC5)cnc43)c2)[nH]1` [Compound B-22, (4,4-difluoropiperidin-1-yl) (1-(5-(5-methyl-4H-1,2,4-triazol-3-yl)pyridin-3-yl)-1H-pyrrolo[2,3-b]pyridine-5-yl) methanone] gave an IC50 below 100 nM.

Consider `COc1ccc(Cn2cc(-c3cncc(-n4ccc5cc(C(=O)N6CCC(F)(F)CC6)cnc54)c3)nc2C)cc1` [Compound B-23, (4,4-difluoropiperidin-1-yl)(1-(5-(1-(4-methoxybenzyl)-2-methyl-1H-imidazol-4-yl)pyridin-3-yl)-1H-pyrrolo [2,3-b]pyridin-5-yl)methanone], for which the half-inhibitory concentration (IC50) is below 100 nM. In turn, `COc1ccc(Cn2cc(-c3ccc(-n4ccc5cc(C(=O)N6CCC(F)(F)CC6)cnc54)cn3)nc2C)cc1` [Compound B-24, (4,4-difluoropiperidin-1-yl) (1-(6-(1-(4-methozybenzyl)-2-methyl-1H-imidazol-4-yl)pyridin-3-yl)-1H-pyrrolo[2,3-b]pyridin-5-yl)methanone] showed an IC50 below 100 nM. Consider `O=C(c1cnc2c(ccn2-c2ccc(-c3nnc[nH]3)cc2)c1)N1CCC(F)(F)CC1` [Compound B-26, (1-(4-(1H-1,2,4-triazol-5-yl)phenyl)-1H-pyrrolo[2,3-b]pyridin-5-yl)(4,4-difluoropiperidin-1-yl)methanone], for which the IC50 was below 100 nM.

On to `O=C(O)c1ccc(-n2ccc3cc(C(=O)N4CCC(F)(F)CC4)cnc32)cc1F` [Compound B-27, 4-(5-(4,4-difluoropiperidine-1-carbonyl)-1H-pyrrolo[2,3-b]pyridin-1-yl)-2-fluorobenzoic acid], for which the IC50 is below 100 nM. Consider `C[C@H]1CCCN(C(=O)c2cnc3c(ccn3-c3ccc(-c4nnc[nH]4)nc3)c2)C1` [Compound B-28], for which the IC50 was below 100 nM. In turn, `C[C@H]1CCCN(C(=O)c2cnc3c(ccn3-c3ccc4nc(N)nn4c3)c2)C1` [Compound B-29] yielded an IC50 below 100 nM.

On to `C[C@H]1CCCN(C(=O)c2cnc3c(ccn3-c3ccc(N4CCNC4=O)nc3)c2)C1` [Compound B-30], for which the IC50 is below 100 nM. With `C[C@H]1CCCN(C(=O)c2cnc3c(ccn3-c3ccc(-c4nc[nH]n4)cc3)c2)C1` [Compound B-33, (S)-(1-(4-(1H-1,2,4-triazol-3-yl)phenyl)-1H-pyrrolo[2,3-b]pyridin-5-yl)(3-methylpiperidin-1-yl)methanone] the figure was below 100 nM. Take `O=C(c1cnc2c(ccn2-c2ccc(-c3nc[nH]n3)cn2)c1)N1CCC(F)(F)CC1` [Compound B-34, (1-(5-(1H-1,2,4-triazol-3-yl)pyridin-2-yl)-1H-pyrrolo[2,3-b]pyridin-5-yl)(4,4-difluoropiperidin-1-yl)methanone]: the IC50 was below 100 nM.

`C[C@H]1CCCN(C(=O)c2cnc3c(ccn3-c3ccc(-c4nc[nH]n4)cn3)c2)C1` [Compound B-35, (S)-(1-(5-(4H-1,2,4-triazol-3-yl)pyridin-2-yl)-1H-pyrrolo[2,3-b]pyridin-5-yl)(3-methylpiperidin-1-yl)methanone] displayed an IC50 below 100 nM. For `C[C@H]1CCCN(C(=O)c2cnc3c(ccn3-c3cccc(-c4nc[nH]n4)c3)c2)C1` [Compound B-37, (S)-(1-(3-(1H-1,2,4-triazol-3-yl)phenyl)-1H-pyrrolo[2,3-b]pyridin-5-yl)(3-methylpiperidin-1-yl)methanone], the half-maximal inhibitory concentration (IC50) is below 100 nM. Consider `O=C(c1cnc2c(ccn2-c2ccc(-c3ncn[nH]3)nc2)c1)N1CCC[C@H](O)C1` [Compound B-39], for which the IC50 is below 100 nM.

In the case of `C[C@H]1CCN(C(=O)c2cnc3c(ccn3-c3ccc(-c4ncn[nH]4)nc3)c2)C1` [Compound B-41], the IC50 is below 100 nM.

`CC1(C)CCN(C(=O)c2cnc3c(ccn3-c3ccc(-c4ncn[nH]4)nc3)c2)C1` [Compound B-42] displayed an IC50 below 100 nM. As to `O=C(c1cnc2c(ccn2-c2ccc(-c3ncn[nH]3)nc2)c1)N1CC[C@H](O)C1` [Compound B-43], the IC50 lay in the range of 100 to 1000 nM.
